This note sets out measurements from US11542259B2, “Compounds for the treatment of kinase-dependent disorders” (Exelixis, Inc., priority 2018, dated 2023).

Common to all, as to format: cell-based
One test addresses Met (Homo sapiens (Human), UniProt P08581). Kind of test: Met autophosphorylation ELISA in PC-3 cells. The following applies: cellular, HGF stimulated, read-out: c-Met IC50. Here is the method:
PC-3 prostate cancer cells (ATCC #CRL-1435) were seeded at 4×10^4 cells/well onto 24-well plates (Greiner #662165), in DMEM (Thermo Fisher #11995-040) containing 10% FBS (Thermo Fisher #26140-079), 1% MEM NEAA (Thermo Fisher #11140-050), 1% GlutaMax (Thermo Fisher #35050-061), and 1% Penicillin Streptomycin (Thermo Fisher #15140-122). PC-3 cells were incubated at 37° C., 5% CO2 for 24 h and then starved for 3 h in serum-free medium. Test compounds were serially diluted to produce an 8-point dose curve in fresh serum-free medium to a final concentration of 0.3% DMSO (vehicle) and added to the cells and incubated for 1 h. Cells were then stimulated with 100 ng/mL recombinant human HGF (R&D Systems #294-HG-250) for 10 min, washed with cold PBS and immediately lysed with 130 μL of cold 1× lysis buffer [20 mM Tris, 137 mM sodium chloride, 2 mM EDTA, 10% glycerol, 1% NP-40 alternative, 1 mM activated sodium orthovanadate, 1 mM PefaBloc SC (Sigma-Aldrich #11429868001), protease/phosphatase inhibitor tablet (Thermo Fisher #A32959)]. Lysates were clarified by centrifugation and 100 μL/well added into the PathScan phospho-Met (panTyr) Sandwich ELISA (Cell Signaling Technology #7333). Assay was performed according to manufacturer's instructions. Positive control wells (100% activity) contained HGF-stimulated, DMSO-treated cell lysates. Negative control wells (0% activity) contained HGF-stimulated, reference inhibitor-treated cell lysates. IC50 values were calculated by nonlinear regression analysis using a 4-parameter logistic curve fit in ActivityBase XE (IDBS).
A general note: An ELISA detects its analyte on a solid surface through an enzyme-linked reagent.

The next test has as its target AXL (Homo sapiens (Human), UniProt P30530). Kind of test: AXL autophosphorylation ELISA in A-172 cells. The following applies: cellular, Gas6 stimulated. Here is the method:
A-172 glioblastoma cells (ATCC #CRL-1620) were seeded at 2.5×10^5 cells/well onto 24-well plates (Greiner #662165), in DMEM (Thermo Fisher #11995-040) containing 10% FBS (Thermo Fisher #26140-079), 1% MEM NEAA (Thermo Fisher #11140-050), 1% GlutaMax (Thermo Fisher #35050-061) and 1% Penicillin Streptomycin (Thermo Fisher #15140-122). A-172 cells were incubated at 37° C., 5% CO2 for 24 h and then starved for 24 h in serum-free medium. Test compounds were serially diluted to produce an 8-point dose curve in fresh serum-free medium to a final concentration of 0.3% DMSO (vehicle) and added to the cells and incubated for 1 h. Cells were then stimulated with 1 μg/mL recombinant human Gas6 (R&D Systems #885-GSB-500) for 15 min, washed with cold PBS and immediately lysed with 150 μL of cold 1× lysis buffer [20 mM Tris, 137 mM sodium chloride, 2 mM EDTA, 10% glycerol, 1% NP-40 alternative, 1 mM activated sodium orthovanadate, 1 mM PefaBloc SC (Sigma-Aldrich #11429868001), protease/phosphatase inhibitor tablet (Thermo Fisher #A32959)]. Lysates were collected and 100 μL/well added into the human phospho-AXL DuoSet IC ELISA (R&D Systems #DYC2228-2). Assay was performed according to manufacturer's instructions and sample phospho-AXL concentrations were extrapolated using human phospho-AXL control (R&D Systems #841645) as a standard. Positive control wells (100% activity) contained Gash-stimulated, DMSO-treated cell lysates. Negative control wells (0% activity) contained Gash-stimulated, reference inhibitor-treated cell lysates. IC50 values were calculated by nonlinear regression analysis using a 4-parameter logistic curve fit in ActivityBase XE (IDBS).

The next test has as its target KDR (Homo sapiens (Human), UniProt P35968). Put plainly: KDR autophosphorylation ELISA in HUVEC cells. The following applies: cellular, VEGF165 stimulated. Here is the method:
Human umbilical vein endothelial cells or HUVEC (Lonza #C2519A) were seeded at 2×10^4 cells/well onto 96-well plates (Corning #3904), in EGM-2 growth medium (Lonza #CC-3162) containing 1% Penicillin Streptomycin (Thermo Fisher #15140-122). HUVEC cells were incubated at 37° C., 5% CO2 for 24 h and then starved for 24 h in serum-free EBM-2 basal medium (Lonza #CC-3156) containing 1% Penicillin Streptomycin. Test compounds were serially diluted to produce an 8-point dose curve in fresh serum-free medium to a final concentration of 0.3% DMSO (vehicle) and added to the cells and incubated for 1 h. Cells were then stimulated with 100 ng/mL recombinant human VEGF165 (R&D Systems #293-VE-500) for 5 min, washed with cold PBS, and immediately lysed with 130 μL of cold 1× lysis buffer [20 mM Tris, 137 mM sodium chloride, 2 mM EDTA, 10% glycerol, 1% NP-40 alternative, 1 mM activated sodium orthovanadate, 1 mM PefaBloc SC (Sigma-Aldrich #11429868001), protease/phosphatase inhibitor tablet (Thermo Fisher #A32959)]. Lysates were collected and 100 μL/well added into the human phospho-KDR DuoSet IC ELISA (R&D Systems #DYC1766-2). Assay was performed according to manufacturer's instructions and sample phospho-KDR concentrations were extrapolated using human phospho-KDR control (R&D Systems #841421) as a standard. Positive control wells (100% activity) contained VEGF165-stimulated, DMSO-treated cell lysates. Negative control wells (0% activity) contained non-stimulated cell lysates. IC50 values were calculated by nonlinear regression analysis using a 4-parameter logistic curve fit in ActivityBase XE (IDBS).

Met, sequence (P08581 25-1390): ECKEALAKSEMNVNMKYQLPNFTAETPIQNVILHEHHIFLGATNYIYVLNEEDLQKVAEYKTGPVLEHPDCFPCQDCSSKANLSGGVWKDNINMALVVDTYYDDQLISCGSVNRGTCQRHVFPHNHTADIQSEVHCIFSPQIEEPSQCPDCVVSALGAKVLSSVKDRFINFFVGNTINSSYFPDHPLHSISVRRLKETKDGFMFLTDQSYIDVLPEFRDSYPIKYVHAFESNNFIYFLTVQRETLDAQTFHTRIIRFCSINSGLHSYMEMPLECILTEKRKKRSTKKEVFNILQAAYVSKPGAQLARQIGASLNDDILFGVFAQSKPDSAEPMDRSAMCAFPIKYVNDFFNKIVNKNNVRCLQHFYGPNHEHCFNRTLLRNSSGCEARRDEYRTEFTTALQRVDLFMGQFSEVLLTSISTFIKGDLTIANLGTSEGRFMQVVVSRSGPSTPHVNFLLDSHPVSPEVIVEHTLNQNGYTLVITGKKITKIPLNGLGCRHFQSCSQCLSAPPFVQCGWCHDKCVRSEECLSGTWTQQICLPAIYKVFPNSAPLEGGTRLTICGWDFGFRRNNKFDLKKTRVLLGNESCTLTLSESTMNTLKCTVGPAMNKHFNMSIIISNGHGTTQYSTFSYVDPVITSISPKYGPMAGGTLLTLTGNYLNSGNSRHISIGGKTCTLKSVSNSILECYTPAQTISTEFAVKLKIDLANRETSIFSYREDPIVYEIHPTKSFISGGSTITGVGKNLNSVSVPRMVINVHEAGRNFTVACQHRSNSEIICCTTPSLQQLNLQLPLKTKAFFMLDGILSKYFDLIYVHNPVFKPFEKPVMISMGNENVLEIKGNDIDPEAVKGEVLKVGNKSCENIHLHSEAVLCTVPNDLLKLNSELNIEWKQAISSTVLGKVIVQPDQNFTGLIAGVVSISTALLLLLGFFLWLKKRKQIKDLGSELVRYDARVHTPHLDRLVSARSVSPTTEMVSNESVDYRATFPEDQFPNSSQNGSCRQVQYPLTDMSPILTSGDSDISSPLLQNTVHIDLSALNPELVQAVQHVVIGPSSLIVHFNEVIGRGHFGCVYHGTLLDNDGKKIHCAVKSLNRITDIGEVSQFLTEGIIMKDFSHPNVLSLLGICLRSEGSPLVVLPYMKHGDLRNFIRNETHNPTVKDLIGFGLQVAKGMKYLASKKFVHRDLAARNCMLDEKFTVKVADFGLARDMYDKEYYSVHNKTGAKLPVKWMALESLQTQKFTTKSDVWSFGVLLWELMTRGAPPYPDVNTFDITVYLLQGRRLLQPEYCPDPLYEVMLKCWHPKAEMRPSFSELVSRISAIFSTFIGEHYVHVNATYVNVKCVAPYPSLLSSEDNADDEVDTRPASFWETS
KDR, sequence (P35968 20-1356): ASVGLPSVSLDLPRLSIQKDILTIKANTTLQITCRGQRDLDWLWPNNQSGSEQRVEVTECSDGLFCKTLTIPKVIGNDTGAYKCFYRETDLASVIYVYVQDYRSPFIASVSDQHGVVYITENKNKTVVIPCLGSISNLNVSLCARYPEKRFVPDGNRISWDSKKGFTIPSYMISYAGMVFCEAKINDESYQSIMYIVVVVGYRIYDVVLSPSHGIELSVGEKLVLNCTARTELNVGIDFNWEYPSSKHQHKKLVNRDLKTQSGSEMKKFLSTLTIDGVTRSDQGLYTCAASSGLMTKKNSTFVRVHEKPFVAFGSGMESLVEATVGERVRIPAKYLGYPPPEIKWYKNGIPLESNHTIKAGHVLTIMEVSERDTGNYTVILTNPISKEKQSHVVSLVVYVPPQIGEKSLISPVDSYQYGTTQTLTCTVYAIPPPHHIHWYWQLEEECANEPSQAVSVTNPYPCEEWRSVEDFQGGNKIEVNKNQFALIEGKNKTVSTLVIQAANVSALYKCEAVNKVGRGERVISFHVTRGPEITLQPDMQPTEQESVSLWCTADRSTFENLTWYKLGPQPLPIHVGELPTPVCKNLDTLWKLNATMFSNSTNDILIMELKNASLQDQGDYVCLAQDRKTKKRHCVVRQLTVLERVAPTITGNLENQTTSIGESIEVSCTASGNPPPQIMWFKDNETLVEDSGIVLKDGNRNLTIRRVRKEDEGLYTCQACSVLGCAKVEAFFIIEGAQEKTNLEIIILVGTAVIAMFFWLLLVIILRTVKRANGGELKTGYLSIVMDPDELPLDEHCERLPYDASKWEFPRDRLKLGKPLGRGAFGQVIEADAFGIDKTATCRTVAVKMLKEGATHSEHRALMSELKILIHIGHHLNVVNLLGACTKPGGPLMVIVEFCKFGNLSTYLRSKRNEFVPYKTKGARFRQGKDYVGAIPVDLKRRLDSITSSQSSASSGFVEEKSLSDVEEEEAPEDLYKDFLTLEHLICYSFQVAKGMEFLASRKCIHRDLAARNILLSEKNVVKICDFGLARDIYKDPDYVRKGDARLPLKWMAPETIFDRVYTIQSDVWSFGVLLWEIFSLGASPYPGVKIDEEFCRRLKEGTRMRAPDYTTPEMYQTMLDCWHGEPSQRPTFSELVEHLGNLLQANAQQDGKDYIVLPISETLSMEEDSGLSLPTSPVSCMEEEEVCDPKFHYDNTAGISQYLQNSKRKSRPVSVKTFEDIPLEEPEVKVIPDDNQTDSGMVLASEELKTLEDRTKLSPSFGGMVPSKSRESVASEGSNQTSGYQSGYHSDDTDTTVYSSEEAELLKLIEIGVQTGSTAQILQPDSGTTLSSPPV
AXL, sequence (P30530 26-894): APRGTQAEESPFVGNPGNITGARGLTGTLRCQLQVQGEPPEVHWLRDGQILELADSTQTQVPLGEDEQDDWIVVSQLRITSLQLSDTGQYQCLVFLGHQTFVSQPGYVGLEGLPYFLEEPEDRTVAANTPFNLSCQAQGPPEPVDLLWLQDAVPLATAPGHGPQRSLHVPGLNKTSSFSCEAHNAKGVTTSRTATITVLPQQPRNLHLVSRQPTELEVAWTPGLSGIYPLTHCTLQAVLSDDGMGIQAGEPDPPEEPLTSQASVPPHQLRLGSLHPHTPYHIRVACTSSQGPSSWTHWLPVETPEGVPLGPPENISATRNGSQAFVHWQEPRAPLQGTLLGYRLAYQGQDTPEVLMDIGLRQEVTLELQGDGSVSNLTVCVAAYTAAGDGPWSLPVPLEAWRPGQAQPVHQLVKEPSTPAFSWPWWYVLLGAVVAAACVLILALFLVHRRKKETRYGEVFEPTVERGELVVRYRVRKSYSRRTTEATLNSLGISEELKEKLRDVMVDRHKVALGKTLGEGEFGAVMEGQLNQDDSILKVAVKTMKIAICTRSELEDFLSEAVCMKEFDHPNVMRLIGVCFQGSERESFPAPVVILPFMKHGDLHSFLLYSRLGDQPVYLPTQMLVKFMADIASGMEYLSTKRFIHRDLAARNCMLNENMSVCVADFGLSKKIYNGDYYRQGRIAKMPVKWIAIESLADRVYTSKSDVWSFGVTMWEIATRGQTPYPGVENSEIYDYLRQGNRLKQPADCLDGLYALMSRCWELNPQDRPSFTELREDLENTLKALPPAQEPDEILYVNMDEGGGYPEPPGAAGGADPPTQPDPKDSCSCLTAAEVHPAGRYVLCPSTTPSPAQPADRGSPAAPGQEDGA

For orientation: IC50 means the midpoint of a concentration-inhibition curve. As to `CO/N=C(\C)c1cc2c(Oc3ccc(NC(=O)C4(C(=O)Nc5ccc(F)cc5)CC4)cc3)ccnc2cc1OC` [Compound 35, 1-N′-(4-fluorophenyl)-1-N-[4-[7-methoxy-6-[(E)-N-methoxy-C-methylcarbonimidoyl]quinolin-4-yl]oxyphenyl]cyclopropane-1,1-dicarboxamide], the IC50 at Met, against AXL and against KDR was 100 to 300 nM throughout.
With `CO/N=C(/C)c1cc2c(Oc3ccc(NC(=O)C4(C(=O)Nc5ccc(F)cc5)CC4)cc3)ccnc2cc1OC` [Compound 36, 1-N′-(4-fluorophenyl)-1-N-[4-[7-methoxy-6-[(Z)-N-methoxy-C-methylcarbonimidoyl]quinolin-4-yl]oxyphenyl]cyclopropane-1,1-dicarboxamide], the IC50 at Met is 100 to 300 nM; against AXL, 100 to 300 nM; against KDR, > 300 nM.
As to `COCCNc1cc2nccc(Oc3ccc(NC(=O)C4(C(=O)Nc5ccc(F)cc5)CC4)cc3)c2cc1C(N)=O` [Compound 70, 1-N-[4-[6-Carbamoyl-7-(2-methoxyethylamino)quinolin-4-yl]oxyphenyl]-1-N′-(4-fluorophenyl)cyclopropane-1,1-dicarboxamide], the IC50 on Met, against AXL and against KDR was 10 to 100 nM throughout.
With `CNc1cc2nccc(Oc3ccc(NC(=O)C4(C(=O)Nc5ccc(F)cc5)CC4)cc3)c2cc1C(=O)O` [Compound 81, 4-[4-[[1-[(4-Fluorophenyl)carbamoyl]cyclopropane-carbonyl]amino]phenoxy]-7-(methylamino)quinoline-6-carboxylic Acid], the IC50 on Met, against AXL and against KDR was > 300 nM throughout.
For `CNc1cc2nccc(Oc3ccc(NC(=O)C4(C(=O)Nc5ccc(F)cc5)CC4)cc3)c2cc1C(N)=O` [Compound 82, 1-N-[4-[6-Carbamoyl-7-(methylamino)quinolin-4-yl]oxyphenyl]-1-N′-(4-fluorophenyl)cyclopropane-1,1-dicarboxamide], the IC50 at Met, on AXL and on KDR was 10 to 100 nM throughout.
For `CNC(=O)c1cc2c(Oc3ccc(NC(=O)C4(C(=O)Nc5ccc(F)cc5)CC4)cc3)ccnc2cc1NC` [Compound 83, 1-N′-(4-Fluorophenyl)-1-N-[4-[7-(methylamino)-6-(methylcarbamoyl)quinolin-4-yl]oxyphenyl]cyclopropane-1,1-dicarboxamide], the IC50 at Met, against AXL and against KDR was 10 to 100 nM in each case.
With `CNc1cc2nccc(Oc3ccc(NC(=O)C4(C(=O)Nc5ccc(F)cc5)CC4)cc3)c2cc1C(=O)OC` [Compound 84, Methyl 4-[4-[[1-[(4-fluorophenyl)carbamoyl]cyclopropane-carbonyl]amino]phenoxy]-7-(methylamino)quinoline-6-carboxylate], the results for the IC50 at Met, on AXL and at KDR were 10 to 100 nM, ≤ 10 nM and ≤ 10 nM, respectively.
Consider `NC(=O)c1cc2c(Oc3ccc(NC(=O)C4(C(=O)Nc5ccc(F)cc5)CC4)cc3)ccnc2cc1N` [Compound 87, 1-N-[4-(7-Amino-6-carbamoylquinolin-4-yl)oxyphenyl]-1-N′-(4-fluorophenyl)cyclopropane-1,1-dicarboxamide], for which the IC50 on Met was 100 to 300 nM; against AXL it was 100 to 300 nM; at KDR, > 300 nM.
Turning to `CNC(=O)c1cc2c(Oc3ccc(NC(=O)C4(C(=O)Nc5ccc(F)cc5)CC4)cc3)ccnc2cc1N` [Compound 88, 1-N-[4-[7-Amino-6-(methylcarbamoyl)quinolin-4-yl]oxyphenyl]-1-N′-(4-fluorophenyl)cyclopropane-1,1-dicarboxamide], the IC50 is 100 to 300 nM at Met, 100 to 300 nM against AXL and > 300 nM at KDR.
`Nc1cc2nccc(Oc3ccc(NC(=O)C4(C(=O)Nc5ccc(F)cc5)CC4)cc3)c2cc1C(=O)O` [Compound 89, 7-Amino-4-[4-[[1-[(4-fluorophenyl)carbamoyl]cyclopropane-carbonyl]amino]phenoxy]quinoline-6-carboxylic Acid]: the concentration for half-maximal inhibition (IC50) on Met, on AXL and against KDR was > 300 nM throughout.
Regarding `COC(=O)c1cc2c(Oc3ccc(NC(=O)C4(C(=O)Nc5ccc(F)cc5)CC4)cc3)ccnc2cc1N` [Compound 90, Methyl 7-amino-4-[4-[[1-[(4-fluorophenyl)carbamoyl]-cyclopropanecarbonyl]amino]phenoxy]quinoline-6-carboxylate], the IC50 at Met, at AXL and against KDR was 10 to 100 nM each time.
On to `CC1NC(=O)c2cc3c(Oc4ccc(NC(=O)C5(C(=O)Nc6ccc(F)cc6)CC5)cc4)ccnc3cc2O1` (stereo not drawn) [Compound 92, 1-N′-(4-Fluorophenyl)-1-N-[4-[(2-methyl-4-oxo-2,3-dihydropyrido[3,2-g][1,3]benzoxazin-6-yl)oxy]phenyl]cyclopropane-1,1-dicarboxamide], for which the IC50 lay within 100 to 300 nM at Met, 10 to 100 nM against AXL and 100 to 300 nM against KDR.
On to `NC(=O)c1cc2c(Oc3ccc(NC(=O)C4(C(=O)Nc5ccc(F)cc5)CC4)cc3)ccnc2cc1OCCO` [Compound 106, 1-N-[4-[6-Carbamoyl-7-(2-hydroxyethoxy)quinolin-4-yl]oxyphenyl]-1-N′-(4-fluorophenyl)cyclopropane-1,1-dicarboxamide], for which the concentration for half-maximal inhibition (IC50) at Met was 10 to 100 nM; against AXL, ≤ 10 nM; against KDR, ≤ 10 nM.
`O=C(NOCCO)c1ccc2c(Oc3ccc(NC(=O)C4(C(=O)Nc5ccc(F)cc5)CC4)cc3)ccnc2c1` [Compound 166, 1-N′-(4-Fluorophenyl)-1-N-[4-[7-(2-hydroxyethoxycarbamoyl)-quinolin-4-yl]oxyphenyl]cyclopropane-1,1-dicarboxamide]: the figures for the IC50 on Met, on AXL and against KDR were 10 to 100 nM, 10 to 100 nM and 100 to 300 nM, respectively.
Regarding `O=C(NOC1COC1)c1ccc2c(Oc3ccc(NC(=O)C4(C(=O)Nc5ccc(F)cc5)CC4)cc3)ccnc2c1` [Compound 167, 1-N′-(4-Fluorophenyl)-1-N-[4-[7-(oxetan-3-yloxycarbamoyl)quinolin-4-yl]oxyphenyl]cyclopropane-1,1-dicarboxamide], the IC50 at Met, against AXL and at KDR was 100 to 300 nM each time.
